The record followed here is patent US8716296B2 (Ingenium Pharmaceuticals GmbH, priority 2007, dated 2014).

SMILES strings stand for the structures. Structures can show the parent of a compound that is named as a salt.

System in the first series: not given
Assay: not given
Conditions: not given
A word on the melting point: it is the temperature of the solid-liquid transition. The molecule `COc1ccc(F)cc1-c1cc(NC(=O)C2CCCCN2)ncn1` (centres unmarked) (as salt: TFA) [Example 37, N-(6-(5-fluoro-2-methoxyphenyl)pyrimidin-4-yl)piperidine-2-carboxamide*TFA] registered a melting point of 122 °C. In the case of `COc1ccc(F)cc1-c1cc(NC(=O)C2CCC(N)CC2)ncn1` (centres unmarked) (as salt: TFA) [Example 38, 4-amino-N-(6-(5-fluoro-2-methoxyphenyl)pyrimidin-4-yl)cyclohexanecarboxamide*TFA], the melting point stood at 162 °C. In the case of `COc1ccccc1-c1cc(NC(=O)[C@H]2CCCNC2)ncn1` [Compound 17A, (S)-Piperidine-3-carboxylic acid [6-(2-methoxy-phenyl)-pyrimidin-4-yl]-amide], the melting point lay in the range of 163 to 165 °C. The same measure, in the same setting: to `COc1ccccc1-c1cc(NC(=O)[C@@H]2CCCNC2)ncn1` [Compound 18A, (R)-Piperidine-3-carboxylic acid [6-(2-methoxy-phenyl)-pyrimidin-4-yl]-amide] belongs 210 to 213 °C; to `COc1ccccc1-c1cc(NC(=O)C2CCCNC2)nc(C)n1` (centres unmarked) [Compound 22A, piperidine-3-carboxylic acid [6-(2-methoxy-phenyl)-2-methyl-pyrimidin-4-yl]-amide], 229 to 230 °C; to `COc1ccc(F)cc1-c1cc(NC(=O)C2(C(N)=O)CC2)ncn1` [Example 10, N-(6-(5-fluoro-2-methoxyphenyl)pyrimidin-4-yl)cyclopropane-1,1-dicarboxamide], 190 °C. Still for that read-out and setting: as for `CCCN1N=C(C(=O)Nc2cc(-c3cc(F)ccc3OC)ncn2)CCC1=O` [Example 11, N-(6-(5-fluoro-2-methoxyphenyl)pyrimidin-4-yl)-1,4,5,6-tetrahydro-6-oxo-1-propylpyridazine-3-carboxamide], the figure is 200 °C. The molecule `COc1cc(F)ccc1-c1cc(NC(=O)C2CCC(=O)NC2)ncn1` (centres unmarked) [Example 14, N-(6-(4-fluoro-2-methoxyphenyl)pyrimidin-4-yl)-6-oxopiperidine-3-carboxamide] showed a melting point of 148 °C. On the same count and under the same terms, to `CCOc1ccccc1-c1cc(NC(=O)C2CCC(=O)NC2)ncn1` (centres unmarked) [Example 15, N-(6-(2-ethoxyphenyl)pyrimidin-4-yl)-6-oxopiperidine-3-carboxamide] belongs 117 °C. `CCOc1ccc(F)cc1-c1cc(NC(=O)C2CCC(=O)NC2)ncn1` (centres unmarked) [Example 16, N-(6-(2-ethoxy-5-fluorophenyl)pyrimidin-4-yl)-6-oxopiperidine-3-carboxamide]: the melting point came to 208 °C. Same read-out and setting: to `COc1ccc(F)cc1-c1cc(NC(=O)C2CCC(=O)NC2)ncn1` (centres unmarked) [Example 17, N-(6-(5-fluoro-2-methoxyphenyl)pyrimidin-4-yl)-6-oxopiperidine-3-carboxamide] belongs 245 °C. `COc1ccc(F)cc1-c1cc(NC(=O)C2CNC(=O)C2)ncn1` (centres unmarked) [Example 18, N-(6-(5-fluoro-2-methoxyphenyl)pyrimidin-4-yl)-5-oxopyrrolidine-3-carboxamide] registered a melting point of 222 °C. Molecule `COc1ccc(F)cc1-c1cc(NC(=O)C2CC(=O)NC(=O)C2)ncn1` [Example 19, N-(6-(5-fluoro-2-methoxyphenyl)pyrimidin-4-yl)-2,6-dioxopiperidine-4-carboxamide] showed a melting point of 160 °C. Still for that read-out and setting: to `CCOc1cc(F)ccc1-c1cc(NC(=O)C2CCC(=O)NC2)ncn1` (centres unmarked) [Example 24, N-(6-(2-ethoxy-4-fluorophenyl)pyrimidin-4-yl)-6-oxopiperidine-3-carboxamide] belongs 222 °C; to `CC(C)Oc1cc(F)ccc1-c1cc(NC(=O)C2CCC(=O)NC2)ncn1` (centres unmarked) [Example 25, N-(6-(4-fluoro-2-isopropoxyphenyl)pyrimidin-4-yl)-6-oxopiperidine-3-carboxamide], 105 °C; to `CC(C)Oc1ccc(F)cc1-c1cc(NC(=O)C2CCC(=O)NC2)ncn1` (centres unmarked) [Example 26, N-(6-(5-fluoro-2-isopropoxyphenyl)pyrimidin-4-yl)-6-oxopiperidine-3-carboxamide], 236 °C.

Molecule `COc1ccc(F)cc1-c1cc(NC(=O)C2CCOCC2)ncn1` [Example 39, N-(6-(5-fluoro-2-methoxyphenyl)pyrimidin-4-yl)-tetrahydro-2H-pyran-4-carboxamide] came in with a melting point of 155 °C. Same read-out and setting: as for `COc1ccc(F)cc1-c1cc(NC(=O)C2CCNC(=O)C2)ncn1` (centres unmarked) [Example 40, N-(6-(5-fluoro-2-methoxyphenyl)pyrimidin-4-yl)-2-oxopiperidine-4-carboxamide], the figure is 225 °C; as for `COc1ccc(F)cc1-c1cc(NC(=O)C2CCCNC2=O)ncn1` (centres unmarked) [Example 41, N-(6-(5-fluoro-2-methoxyphenyl)pyrimidin-4-yl)-2-oxopiperidine-3-carboxamide], 180 °C.

Take `COc1ccc(F)cc1-c1cc(NC(=O)[C@H]2CCCC[C@H]2N)ncn1.Cl` [Example 46, (1S,2R)-2-amino-N-(6-(5-fluoro-2-methoxyphenyl)pyrimidin-4-yl)cyclohexanecarboxamide*HCl]: the melting point was determined as 272 °C. `COc1ccc(F)cc1-c1cc(NC(=O)c2cc(C)on2)ncn1` [Example 55, N-(6-(5-fluoro-2-methoxyphenyl)pyrimidin-4-yl)-5-methylisoxazole-3-carboxamide] displayed a melting point of 170 °C. Consider `CCc1ccc(C(=O)Nc2cc(-c3cc(F)ccc3OC)ncn2)nc1` [Example 56, 5-ethyl-N-(6-(5-fluoro-2-methoxyphenyl)pyrimidin-4-yl)pyridine-2-carboxamide], for which the melting point came out at 176 °C. `CCc1cc(C(=O)Nc2cc(-c3cc(F)ccc3OC)ncn2)no1` [Example 58, 5-ethyl-N-(6-(5-fluoro-2-methoxyphenyl)pyrimidin-4-yl)isoxazole-3-carboxamide] had a melting point of 175 °C. For `COc1ccc(F)cc1-c1cc(NC(=O)c2cnn3cc(C)cnc23)ncn1` [Example 59, N-(6-(5-fluoro-2-methoxyphenyl)pyrimidin-4-yl)-6-methylpyrazolo[1,5-a]pyrimidine-3-carboxamide], the melting point is 265 °C. As to `COc1ccc(F)cc1-c1cc(NC(=O)c2cc(=O)[nH]c3ccccc23)ncn1` [Example 60, N-(6-(5-fluoro-2-methoxyphenyl)pyrimidin-4-yl)-1,2-dihydro-2-oxoquinoline-4-carboxamide], the melting point was determined as 276 °C. `COc1ccc(F)cc1-c1cc(NC(=O)C(=O)c2ccccc2)ncn1` [Example 61, N-(6-(5-fluoro-2-methoxyphenyl)pyrimidin-4-yl)-2-oxo-2-phenylacetamide] gave a melting point of 146 °C. In turn, `COc1ccc(F)cc1-c1cc(NC(=O)Cc2cc(F)c(F)cc2F)ncn1` [Example 62, N-(6-(5-fluoro-2-methoxyphenyl)pyrimidin-4-yl)-2-(2,4,5-trifluorophenyl)acetamide] displayed a melting point of 208 °C.

In a further series the test system is LPS induced THP-1 macrophages. The series can be described thus: In vitro THP-1 assay, model of cytokine inhibition. Type of series: cell-based, human. The following applies: differentiated THP-1 cells, 60 min pre-incubation, LPS 4-48 h, ELISA, versus vehicle (DMSO). The protocol:
The human THP-1 cell line can be utilized as an in vitro model of cytokine expression as mediated by Lipopolysaccharide (LPS) or Tumor Necrosis Factorα [TNFα].
Monocytic THP-1 cells (ATCC; TIB-202) can be differentiated into macrophage-like cells expressing pro-inflammatory cytokines like TNFα, IL6 and IL1β upon induction with LPS or by TNFα (autocrine induction) itself.
THP-1 cells are grown in modified RPMI-1640 medium (ATCC, Cat. No. 30-2001) supplemented with 10% FCS and 1% Pen/Strep. For cytokine inhibition assays, cells are seeded at a density of 5×10^5 cells/ml into 6-well plates in standard growth medium supplemented with 100 ng/ml PMA (Sigma, P1585) to induce differentiation into macrophage-like cells. After 24 hours, the medium is replaced with standard growth medium (without PMA) and the cells are incubated for another 48 hours to complete differentiation.
After 72 h of differentiation, the medium is replaced with serum free growth medium, and CDK-inhibiting compounds as well as reference compounds such as positive and negative controls, each dissolved in DMSO are added at concentrations ranging from 0.5 to 5 μM (final concentration of DMSO in the well is 0.1%). Cells are incubated for 60 min with compounds prior to stimulation with 100 ng/ml LPS (Sigma, L2630) for another 4-48 hours. Supernatants are collected and assayed immediately for cytokine expression, e.g. for TNFα, IL-6 and IL-1b using commercially available sandwich ELISA assays (eBioscience, Cat. No 88-7346, 88-7066, 88-7010) or kept frozen at […] until evaluation.
Concentrations of TNFα, IL6 and IL1β within the cell culture supernatants are measured by using commercial ELISA Kits (eBioscience) according to the manufacturers instructions.
CDK-inhibitory compounds #1A, 16A, 20A, and 25A were administered to differentiated THP-1 cells in triplicates as described above (see section 2.). After 60 min of pre-incubation with test or reference compound (SB203580, a p38 inhibitor and BMS345541, an IKK-inhibitor) alone, cells were stimulated with LPS. After incubation for 4-48 h, supernatants were collected and ELISA based determinations of cytokine supernatant concentrations were performed as described in section 3, supra.
(In an ELISA, binding on a coated surface is turned into a signal by an enzyme label.)
On to `COc1ccccc1-c1cc(NC(=O)C(C)(C)C)ncn1` [Compound 25A, N-[6-(2-methoxy-phenyl)-pyrimidin-4-yl]-2,2-dimethyl-propionamide], for which the “IL6 protein concentration in the cell supernatant” value is “significant inhibitory effect” and the “TNFα protein concentration in the cell supernatant” value was “significant inhibitory effect”.
